Data from patent US20240025862A1, “SUBSTITUTED N-PHENYLURACILS AND SALTS THEREOF, AND USE THEREOF AS HERBICIDAL ACTIVE SUBSTANCES” (Bayer Aktiengesellschaft, priority 2020, published 2024).

Tests used:
Format in all cases: in vivo
Setaria viridis (SETVI) = test: Post-emergence herbicidal action, greenhouse pot test (also comparative test C)
How it was run: (§1)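 Green parts of one-leaf-stage plants are sprayed at 600 l/ha with formulated compound plus 0.5% additive, then kept under optimum greenhouse conditions for about 3 weeks. Damage is scored visually, where 100% means dead plants and 0% means no difference from controls.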

[1] = system: Matricaria inodora (MATIN); test: as above
How it was run: as §1

[2] = system: Echinochloa crus-galli (ECHCG); test: as above
How it was run: as §1

[3] = system: Alopecurus myosuroides (ALOMY); test: as above
How it was run: as §1

[4] = system: Amaranthus retroflexus (AMARE); test: Post-emergence herbicidal action, greenhouse pot test; settings: Amaranthus retroflexus, 504 h, rated visually after about 3 weeks vs untreated controls, 100% = plants have died
How it was run: (§2)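 Greenhouse-grown weeds in sandy loam were sprayed post-emergence at the one-leaf stage, 2–3 weeks after sowing. Compounds were formulated as WP or EC in water with 0.5% additive at 600 l/ha, at rates of 20 g/ha or less. Visual rating after about 3 weeks used a scale from 0% (like untreated control) to 100% (plants dead).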

Avena fatua (AVEFA) = test: as above; settings: Avena fatua, 504 h, 20 g/ha, rated visually after about 3 weeks vs untreated controls, 100% = plants have died, read-out: Post-emergence action at 20 g/ha against AVEFA in %
How it was run: as §2

[5] = system: Polygonum convolvulus (POLCO); test: as above; settings: Fallopia convolvulus, 504 h, read-out: Post-emergence action against POLCO in %
How it was run: as §2

Viola tricolor (VIOTR) = test: as above; settings: Viola tricolor, 504 h, read-out: Post-emergence action against VIOTR
How it was run: as §2

[6] = system: Pharbitis purpurea (PHBPU); test: as above; settings: Ipomoea purpurea, 504 h, read-out: Post-emergence action against PHBPU in %
How it was run: as §2

[7] = system: Abutilon theophrasti (ABUTH); test: as above; settings: Abutilon theophrasti, 504 h, rated visually after about 3 weeks vs untreated controls, 100% = plants have died
How it was run: as §2

Veronica persica (VERPE) = test: as above; settings: Veronica persica, 504 h, read-out: Post-emergence action against VERPE
How it was run: as §2

Lolium rigidum (LOLRI) = test: as above; settings: Lolium rigidum, 504 h, dosage 20 g/ha, read-out: Post-emergence action against LOLRI in %
How it was run: as §2

Zea mays (ZEAMX) = test: Pre-emergence crop plant compatibility, greenhouse pot test; settings: 20 g/ha
From the text: Seeds of monocotyledonous and dicotyledonous weed plants and crop plants were placed in plastic or organic planting pots and covered with soil. The compounds of the invention, formulated in the form of wettable powders (WP) or as emulsion concentrates (EC), were then applied to the surface of the covering soil as aqueous suspension or emulsion with addition of 0.5% additive at a water application rate equivalent to 600 l/ha (converted). After the treatment, the pots were placed in a greenhouse and kept under good growth conditions for the test plants. After about 3 weeks, the effect of the preparations was scored visually in comparison with untreated controls as percentages. For example, 100% activity=the plants have died, 0% activity=like control plants.
The observed effects on selected crop plants are reported here in comparison to the untreated controls (values in %).

[8] = application rate of 5 g or less per hectare, tables C1 to C4
[9] = comparative test C, application rate 1.25 g/ha

What does the source list for COCCOC(=O)COc1ccccc1Oc1cc(-n2c(=O)cc(C(F)(F)F)n(C)c2=O)c(F)cc1Cl [I.7-1, 2-Methoxyethyl (2-{2-chloro-4-fluoro-5-[3-methyl-2,6-dioxo-4-(trifluoromethyl)-3,6-dihydropyrimidin-1(2H)-yl]phenoxy}phenoxy)acetate]?
pest or weed control at 20 g/ha (Setaria viridis (SETVI); Setaria viridis, 504 h, 20 g/ha, read-out: Post-emergence action against SETVI): 100%; pest or weed control at 1.25 g/ha (Setaria viridis (SETVI); Setaria viridis, 504 h, dosage 1.25 g/ha, read-out: Post-emergence action against SETVI in %): 100%; pest or weed control at 5 g/ha (Setaria viridis (SETVI); Setaria viridis, 504 h, dosage 5 g/ha, read-out: Post-emergence action against SETVI in %): 100%; herbicidal efficacy against SETVI by comparison with literature compound a-17 / 3-14 (Setaria viridis (SETVI); [8]): distinct improvement in herbicidal efficacy; SETVI (efficacy in %) (Setaria viridis (SETVI); [9]): 100%; pest or weed control at 1.25 g/ha ([1]; Tripleurospermum inodorum, 504 h, dosage 1.25 g/ha, read-out: Post-emergence action against MATIN in %): 100%; pest or weed control at 5 g/ha ([1]; Tripleurospermum inodorum, 504 h, dosage 5 g/ha, read-out: Post-emergence action against MATIN in %): 100%; pest or weed control at 20 g/ha ([1]; Tripleurospermum inodorum, 504 h, dosage 20 g/ha, read-out: Post-emergence action against MATIN in %): 100%; herbicidal efficacy against MATIN by comparison with literature compound a-17 / 3-14 [1, 8]: distinct improvement in herbicidal efficacy; MATIN (efficacy in %) [1, 9]: 100%; Post-emergence action at 1.25 g/ha against ECHCG in % ([2]; 1.25 g/ha, rated visually after about 3 weeks vs untreated controls, 100% = plants have died): 90%; pest or weed control at 5 g/ha ([2]; Echinochloa crus-galli, 504 h, dosage 5 g/ha, read-out: Post-emergence action against ECHCG in %): 100%; pest or weed control at 20 g/ha ([2]; Echinochloa crus-galli, 504 h, dosage 20 g/ha, read-out: Post-emergence action against ECHCG in %): 90%; herbicidal efficacy against ECHCG by comparison with literature compound a-17 / 3-14 [2, 8]: distinct improvement in herbicidal efficacy; ECHCG (efficacy in %) [2, 9]: 90%; pest or weed control at 5 g/ha ([3]; Alopecurus myosuroides, 504 h, 5 g/ha, rated visually after about 3 weeks vs untreated controls, 100% = plants have died, read-out: Post-emergence action at 5 g/ha against ALOMY in %): 80%; pest or weed control at 20 g/ha ([3]; Alopecurus myosuroides, 504 h, 20 g/ha, rated visually after about 3 weeks vs untreated controls, 100% = plants have died, read-out: Post-emergence action at 20 g/ha against ALOMY in %): 100%; herbicidal efficacy against ALOMY by comparison with literature compound a-17 / 3-14 [3, 8]: distinct improvement in herbicidal efficacy; pest or weed control at 1.25 g/ha ([4]; 1.25 g/ha, read-out: Post-emergence action at 1.25 g/ha against AMARE in %): 100%; pest or weed control at 5 g/ha ([4]; 5 g/ha, read-out: Post-emergence action at 5 g/ha against AMARE in %): 100%; pest or weed control at 20 g/ha ([4]; 20 g/ha, read-out: Post-emergence action at 20 g/ha against AMARE in %): 100%; pest or weed control at 20 g/ha (Avena fatua (AVEFA)): 80%; pest or weed control at 5 g/ha ([5]; dosage 5 g/ha): 80%; pest or weed control at 20 g/ha ([5]; dosage 20 g/ha): 100%; pest or weed control at 1.25 g/ha (Viola tricolor (VIOTR); 1.25 g/ha): 100%; pest or weed control at 5 g/ha (Viola tricolor (VIOTR); 5 g/ha): 100%; pest or weed control at 20 g/ha (Viola tricolor (VIOTR); 20 g/ha): 100%; pest or weed control at 1.25 g/ha ([6]; dosage 1.25 g/ha): 100%; pest or weed control at 5 g/ha ([6]; dosage 5 g/ha): 100%; pest or weed control at 20 g/ha ([6]; dosage 20 g/ha): 100%; pest or weed control at 5 g/ha ([7]; 5 g/ha, read-out: Post-emergence action at 5 g/ha against ABUTH in %): 100%; pest or weed control at 20 g/ha ([7]; 20 g/ha, read-out: Post-emergence action at 20 g/ha against ABUTH in %): 100%; pest or weed control at 1.25 g/ha (Veronica persica (VERPE); 1.25 g/ha): 100%; pest or weed control at 5 g/ha (Veronica persica (VERPE); 5 g/ha): 100%; pest or weed control at 20 g/ha (Veronica persica (VERPE); 20 g/ha): 100%; pest or weed control at 20 g/ha (Lolium rigidum (LOLRI)): 80%; Pre-emergence action against ZEAMX in % (Zea mays (ZEAMX)): 0%
